Experiment: Inhibition of His-tagged IRE1alpha D688N mutant KR domain (G547 to L997 reidues) (unknown origin) expressed in Sf9 insect cells measured after 1 hr by TR-FRET assay
Set-up: species or system Homo sapiens

SMILES	IC50 [nM]
CCc1cc(-c2ccc(NS(=O)(=O)CCC(F)(F)F)c(F)c2)cc2cnc(N[C@H]3CC[C@H](N(C)C)CC3)nc12	0.25
CCc1cc(-c2ccc(NS(=O)(=O)Cc3ccccc3)c(F)c2)cc2cnc(N[C@@H]3CNC[C@@H](F)C3)nc12	0.18
O=S(=O)(Cc1ccccc1)Nc1ccc(-c2ccc3nc(N[C@H]4CCCNC4)ncc3c2)c(F)c1F	0.57
O=S(=O)(Cc1ccccc1)Nc1c(F)cc(-c2ccc3nc(N[C@H]4CCCNC4)ncc3c2)cc1F	0.53
O=S(=O)(Cc1ccccc1)Nc1c(F)cc(-c2ccc3nc(N[C@@H]4CNC[C@@H](F)C4)ncc3c2)cc1F	0.51
CCc1cc(-c2ccc(NS(=O)(=O)Cc3ccccc3)cc2F)cc2cnc(N[C@@H]3CNC[C@@H](F)C3)nc12	0.46
